The values that follow are results of earlier work, collected in PMC12691659 (Antimicrobial Agents and Chemotherapy, 2025).

The conditions of data set [1]: human, in vivo; cited from earlier work.
The conditions of data set [2]: in vivo, cited from earlier work. An excerpt:
Its retrospective, uncontrolled design limits the ability to establish causal relationships. The adherence to co-prescribing treatments could not be verified. […] Overexposure definition was based on Cmin rather than AUC, because the latter is still not widely available in routine TDM.

For data set [3] the following is noted: in vivo; cited from earlier work.
For data set [4] the following is noted: human, in vivo; cited from earlier work. The source holds these as a separate data set.
The test system of another data set is P-glycoprotein (P-gp). As to conditions: cited from earlier work.

Bounds are passed on as bounds.

Regarding `CCCCCCCCCC(=O)N[C@@H](Cc1c[nH]c2ccccc12)C(=O)N[C@H](CC(N)=O)C(=O)N[C@@H](CC(=O)O)C(=O)N[C@@H]1C(=O)NCC(=O)N[C@@H](CCCN)C(=O)N[C@@H](CC(=O)O)C(=O)N[C@H](C)C(=O)N[C@@H](CC(=O)O)C(=O)NCC(=O)N[C@H](CO)C(=O)N[C@@H]([C@H](C)CC(=O)O)C(=O)N[C@@H](CC(=O)c2ccccc2N)C(=O)O[C@@H]1C` [daptomycin], in data set [1], the “CLDAP, population final estimate” value is 0.365 L/h; the “Q, population final estimate” value was 0.752 L/h; the “V1, population final estimate” value was 3.59 L; the “V2, population final estimate” value was 4.71 L. Further, in data set [1], the γCL was 0.193; the γV1 was 0.24; the “θ1 (CL, CLCR)” value is recorded as 0.43; the “θ2 (CL, Sex)” value was 0.232. In data set [1], the “θ3 (V1, Age)” value is 0.263; the “θ4 (V1, WT)” value is 0.603; the “θ6 (V1, Sex)” value was 0.117; the ωCL is given as 0.196. Besides, in data set [1], the ωQ is 1.13, the ωV1 is 0.123 and the ωV2 is 0.29. Besides, the “Cmin associated with an increased risk of CPK elevation” value in data set [2] (6 mg/kg) was over 24300 ng/mL. Also, in data set [2], the “AUC associated with increased risk of adverse events” value is over 939 µg·h/mL and the “Cmin associated with increased risk of adverse events” value is over 24000 ng/mL. Moreover, the “Dose excreted unchanged by the kidneys” value in data set [3] is 78%. In data set [4], the “Increase of AUC in morbidly obese subjects” value is 60% and the “Increase of Cmax in morbidly obese subjects” value is recorded as 60%.

Turning to `CCCCC1=NC2(CCCC2)C(=O)N1Cc1ccc(-c2ccccc2-c2nnn[nH]2)cc1` [irbesartan], the “Dose eliminated unchanged in the urine” value in data set [3] is recorded as “Up to 20%”. In addition, the “Inhibition of the transport of digoxin, a known P-gp substrate” value in the data set on P-glycoprotein (P-gp) was “inhibit the transport of digoxin”. In addition, in the data set with P-glycoprotein (P-gp) (renal efflux transporter), the P-glycoprotein substrate status result is listed as “substrate of P-glycoprotein”.

For `CCCc1nc2c(C)cc(-c3nc4ccccc4n3C)cc2n1Cc1ccc(-c2ccccc2C(=O)O)cc1` [telmisartan], in the data set with P-glycoprotein (P-gp), the “Inhibition of the transport of digoxin, a known P-gp substrate” value is reported as “inhibit the transport of digoxin”.
